In general, melting point refers to the temperature of the solid-liquid transition. In turn, `CCCCN(CCCC)c1ccc(C=CC2=C(OC)C(=CC=CC3=C(C#N)C(=C(C#N)C#N)OC3(c3ccccc3)C(F)(F)F)CC(C)(C)C2)c(OC)c1` (stereo unspecified) came in with a melting point of 153 to 158 °C.
In the case of `COc1cc(C)c(C)cc1OC`, the melting point lay within 41 to 42 °C.
For the molecule `Brc1ccc(N2CCCN(c3ccc(Br)cn3)CC2)nc1`, the melting point is 178 to 181 °C.
`Cc1ccccc1CC(=O)N1C[C@@H]2C(=O)CCC(c3ccccc3)(c3ccccc3)[C@@H]2C1` (racemic): the melting point stood at 196 °C.
To `CC(C)c1cccc(C(C)C)c1NC(=O)NCC(c1ccccc1)c1ccccc1` belongs 175 to 176 °C; to `COc1ccc2ccc(O)c([N+](=O)[O-])c2c1`, 130 to 131 °C.
On to `CCc1nc2c(N)nc3ccccc3c2n1CCCCS(C)(=O)=O`, for which the melting point was in the range of 182 to 185 °C.
The molecule `Cc1ccc(C(=O)c2c(C)cc(C)cc2O)cc1` registered a melting point of 102 to 105 °C.
Consider `O=C(O)c1cn(-c2ccc(F)cc2F)c2cc(-c3ccncc3)ccc2c1=O`, for which the melting point was in the range of 291 to 292 °C.
Take `CCCCn1cc(C(=O)Nc2nccs2)c2ccc(Cl)cc21`: the melting point lay in the range of 168 to 169 °C.
Molecule `COc1cccc2c(Nc3ccccc3)nc(Cl)nc12` came in with a melting point of 245 to 246 °C.
Then `CC(=O)c1csc2ccc(OS(=O)(=O)c3ccccc3)cc12`, with 129 to 130 °C; and `NC(=O)c1sc2nccc(N3CCN(C/C=C/c4ccccc4)CC3)c2c1N`, with 225 to 227 °C.
As for `COc1ccc(C(=O)C2=C(c3ccccc3)c3ccccc3C2)cc1`, the melting point lay within 114 to 115 °C.
The molecule `COc1cccc(-c2cn3cc(-c4cccc(CO)c4F)ccc3n2)c1` registered a melting point of 143 to 144 °C.
Regarding `CN(C)C(=O)N[C@H]1CC[C@H](CCN2CCN(c3nccc4c3CCO4)CC2)CC1`, the melting point was 260 °C.
For the molecule `CCOC(=O)c1cc(-c2ncc(Cl)cc2F)nn1C`, the melting point lay in the range of 117 to 118 °C.
With `CCCC(=O)Nc1n[nH]c2cc(-c3ccncc3)ccc12`, the melting point turned out to be 200 °C.
Then `Cc1cc(-c2noc(C3CC3)n2)cc(C)c1OCCCc1cc(CO)no1`, with 80 to 81 °C; and `CCCCCCCCCCCCCCCCCCC(=O)Nc1ccn(C2OC(CO)C(O)C2O)c(=O)n1` (stereo unspecified), with 139 to 142 °C; and `O=c1oc2ccccc2c(O)c1-c1ccc(Cl)c(Cl)c1`, with 262 °C.
To `O=C(c1ccc(OS(=O)(=O)C(F)(F)F)cc1OS(=O)(=O)C(F)(F)F)c1ccc(OS(=O)(=O)C(F)(F)F)cc1OS(=O)(=O)C(F)(F)F` belongs 94 to 96 °C; to `COC(=O)c1ccnc(N2CCN(CC3CC3)C2=O)c1`, 75 to 77 °C; to `O=C(NCC(F)(F)F)C1(CCCCc2ccc(NS(=O)(=O)c3ccccc3[N+](=O)[O-])cc2)c2ccccc2-c2ccccc21`, 60 to 64 °C.
For `O=[N+]([O-])c1cn2c(n1)O[C@@H](COc1ccc(N3CCC(OCc4ccc(OC(F)(F)F)cc4)CC3)cc1)C2`, the melting point fell in the range of 188 to 189 °C.
The molecule `CSc1ccc(CC(=O)O)cc1Cl` yielded a melting point of 106 to 108 °C.
Molecule `Nc1cc(Br)nc(C(=O)O)c1Cl` had a melting point of 182 to 183 °C.
In turn, `O=C1c2ccccc2N(Cc2ccc(F)cc2)C2=NCCN12` had a melting point of 192 to 195 °C.
`CC(C)=CCNC(=N)N[N+](=O)[O-]` gave a melting point of 134 to 136 °C.
The molecule `COCOc1cccc(-c2ccc(-c3ccccc3)cc2-c2ccc3c(c2)C(C)(C)CCC3(C)C)c1C(=O)O` registered a melting point of 103 to 104 °C.
In the case of `CC(C)(C)CN1C(=O)N(CC(=O)O)N=C(c2ccccc2Cl)c2cc(Cl)ccc21`, the melting point lay within 181 to 183 °C.
Then `FC(F)(F)c1ccc(-c2ccc(N3CCCN(c4ccc(-c5ccc(C(F)(F)F)cc5)cn4)CC3)nc2)cc1`, with 236 to 238 °C.
`COc1ccc(-n2nc(-c3ccccc3O)nc2-c2ccccc2O)cc1`: the melting point is 179 to 181 °C.
In turn, `O=C(NC(=NCCSCc1cccs1)NCCCc1c[nH]cn1)c1ccccc1` yielded a melting point of 128 to 129 °C.
On to `CCN1CCN(C(=O)c2ccc(C(=O)N3CCN(c4ncccc4NC(C)C)CC3)cc2)CC1`, for which the melting point lay within 130 to 131 °C.
The molecule `COc1ccc(C2=NN(C3CCN(S(=O)(=O)c4ccccc4F)CC3)C(=O)CC2)cc1OC` returned a melting point of 198 to 199 °C.
The molecule `Cc1ccc(-c2nc(C)c3ccccc3n2)nc1-c1ccccc1` showed a melting point of 141 to 143 °C.
`NC(=O)c1nccn1C1Cc2cc(Cl)ccc2C1=O` (stereo unspecified): the melting point was 240 °C.
Regarding `Cc1ccc(NC(=O)N2CCC(=C(F)c3cccc(Oc4ccc(C(F)(F)F)cn4)c3)CC2)cn1`, the melting point fell in the range of 158 to 160 °C.
Then `CC(C)(C)[Si](C)(C)Oc1ccc(C(=O)O)cc1C12CC3CC(CC(C3)C1)C2`, with 250 to 252 °C.
Regarding `COc1cccc(-c2cnn(-c3cccc(C(=O)O)c3)c2)c1`, the melting point was in the range of 157 to 158 °C.
For `O=C1c2ccccc2C(=O)c2sc(-c3ccsc3)nc21`, the melting point was determined as 258 °C.
On to `CCOc1cc2cc(CO)cc(-c3ccnc(-n4nc(-c5ccccc5)c5ccccc5c4=O)c3)c2cc1OCC`, for which the melting point lay within 203 to 204 °C.
Molecule `N#Cc1c(-c2ccc(Cl)cc2)[nH]c(C(F)(F)F)c1Sc1ccc(Cl)c(Cl)c1` came in with a melting point of 94 to 97 °C.
In turn, `CC(=O)OC1CSC(Oc2cncc(-c3ccc(F)nc3)c2)C(OC(C)=O)C1OC(C)=O` (stereo unspecified) yielded a melting point of 167 to 169 °C.
With `CC(=O)C1CCC2C3CCC4CC(=O)C(C)CC4(C)C3C(=O)CC12C` (stereo unspecified), the melting point amounted to 176 °C.
Then `CCCCCc1c(C=CC(=O)OC)nc(C(C)C)c(CO)c1-c1ccc(F)cc1`, with 82 to 83 °C; and `O=C(Nc1cccc(Cl)c1C(=O)O)c1cccc(F)c1`, with 216 to 219 °C; and `Cc1cc2c(cc1-c1cc(C=CC(=O)O)ccc1F)C(C)(C)CCC2(C)C`, with 181 to 183 °C.
The molecule `N#CCNCCc1c[nH]c2ccc(Cl)cc12` displayed a melting point of 80 °C.
`c1ccc(Cc2cccnn2)cc1` had a melting point of 61 to 64 °C.
With `NC(=O)COCCN1CCN(C(c2ccccc2)c2ccc(Cl)cc2)CC1` (single isomer, unassigned; (-)), the melting point is 94.3 °C.
Then `CC(C)n1nc(-c2cnc(N)nc2-c2cccs2)ccc1=O`, with 213 °C.
Then `O=S(=O)(c1ccccc1)n1c(Cc2cc3ccccc3n2S(=O)(=O)c2ccccc2)cc2ccccc21`, with 144 to 145 °C; and `CC(C)(C)OC(=O)c1nn(-c2ccc(Cl)cc2Cl)c(-c2ccc(Cl)cc2)c1CC#N`, with 168 °C.
For `NC(=O)CN1C(=O)[C@@H](N)[C@H](c2ccccc2)Sc2cc(Cl)ccc21` (relative stereo), the melting point lay in the range of 225 to 228 °C.
The molecule `CCOc1cc(Cc2cnc(N)nc2N)cc2c1OC(C)(C)C=C2` had a melting point of 184 to 186 °C.
On to `O=C(O)c1cc(F)ccc1Nc1ccnc2cc(Cl)ccc12`, for which the melting point was in the range of 341 to 342 °C.
`O=S1(=O)NC(C2CCCCC2)Nc2ccc(-c3ccccc3F)cc21` (stereo unspecified) yielded a melting point of 249 to 250 °C.
In turn, `Nc1nc(-c2c(-c3ccccc3)c3ccccc3[nH]c2=O)cs1` showed a melting point greater than 220 °C.
`O=S(=O)(c1cc(Cl)cc(Cl)c1)c1nnc(C(F)(F)F)s1` yielded a melting point of 123 °C.
`COCCOC(=O)c1ccccc1Nc1nc(Nc2cc3c(cc2OC)CCN(CCO)CC3)ncc1Cl` registered a melting point of 125 to 131 °C.
`CNc1cc(-n2cc(C(=O)O)c(=O)c3cc(F)c(NC)c(C)c32)c(F)cc1F` displayed a melting point of 220 to 222 °C.
To `N#Cc1cc2nc(O)c(O)nc2c2ccccc12` belongs greater than 300 °C; to `CC(C)(C)OC(=O)c1ccc(OCCNC(=O)C2Cc3ccccc3N2S(=O)(=O)c2ccc(-c3ccc(F)cc3Cl)cc2)cc1` (stereo unspecified), 78 °C.
To `CC(C)N(C(=O)c1cccc2c1CCc1cc(F)ccc1S2)C(C)C` belongs 149 to 150 °C; to `CCc1n[nH]c(=O)n1CCOc1ccccc1`, 136 to 139 °C.
With `O=C1C(CCO)Oc2ccccc2N1Cc1ccc2ccccc2c1` (stereo unspecified), the melting point was 81 to 87 °C.
As to `CC(=O)C(=O)C(=O)OC(C)(C)C`, the melting point is 62 to 66 °C.
Consider `O=C(O)c1nc2n(n1)-c1cc(Cl)ccc1N(c1ccc(Cl)cc1Cl)C2`, for which the melting point fell in the range of 218 to 222 °C.
To `CC(=O)NCC1CN(c2ccc(-n3cccc3)c(F)c2)C(=O)O1` (stereo unspecified) belongs 198 to 200 °C.
With `O=c1[nH]c2cc(Cl)cc(Cl)c2c(-c2cc(Cl)ccc2O)c1O`, the melting point was 297 to 299 °C.
To `Cc1cc(C)c(Nc2nc(C)ncc2S(=O)(=O)c2ccc(O)cc2)c(C)c1` belongs 246 to 248 °C; to `CCOC(=O)c1snc(CO)c1N`, 82 to 85 °C.
Regarding `CC(=O)C1(O)CCC2C3CC(C)C4=CC(=O)CCC4(C)C3(F)CCC21C` (stereo unspecified), the melting point was 232 to 235 °C.
Then `Cc1c(C(=O)Nc2ccc(N3CCC(N4CCOCC4)CC3)c(C#N)c2)cnn1-c1ccccn1`, with 251 °C; and `CCCCCCCC(=O)CCCCCC(=O)N[C@@H](C)C(=O)O`, with 84 to 86 °C; and `O=C(O)c1ccc(NCCCCCCOc2ccccc2)cc1`, with 168 to 170 °C.
`CC(C)(C#N)c1cc(C(O)c2cccnc2)cc(C(C)(C)C#N)c1` (stereo unspecified) showed a melting point of 117 to 120 °C.
To `NC(Cc1nc2cc(F)c(F)cc2nc1CP(=O)(O)O)C(=O)O` (stereo unspecified) belongs 144 to 145 °C.
`COC(=O)C1CN(C(=O)OC(C)(C)C)CCN1C(=O)/C=C/c1ccc(Sc2ccc3c(c2)OCCO3)c(C(F)(F)F)c1` (stereo unspecified) displayed a melting point of 85 to 87 °C.
Then `c1ccc(CN2CCN(Cc3ccccc3)C(CCc3ccncc3)C2)cc1` (stereo unspecified), with 96 to 98 °C; and `CC1C(=S)Nc2c1cc(F)c(F)c2F` (stereo unspecified), with 177 to 178 °C; and `CC(C)(C)C1=NN(c2ccc(C(=O)O)cc2)C(c2ccccc2F)C1` (stereo unspecified), with 225 °C.
For `CCOc1ccc2[nH]c(=O)n(-c3ccccn3)c2c1`, the melting point came to 205 °C.
Molecule `O=C1CN(c2ccc(F)cc2)CCN1` gave a melting point of 118 to 120 °C.
